Reference: patent US20160109450A1, “METHOD FOR MONITORING METASTASIS OF CANCER CELLS USING CELLS CULTURED IN THREE DIMENSIONAL COLLAGEN ENVIRONMENT” (Medicinal Bioconvergence Research Center, priority 2013, published 2016)

What was measured:
MDA-MB-231 cell line [1] = details: ERK inhibitor treated cells
MDA-MB-231 cell line [2] = experiment: ChIP (chromatin immunoprecipitation) on snail1 and cortactin promoters; format: cell-based, human; details: ChIP with anti-pS63 c-Jun antibody
Description: The cells were then treated with 1.5 M glycine, followed by washing with cold PBS containing protease inhibitor. The fixed cells were loaded in SDS-lysis buffer supplemented with protease/kinase inhibitor, followed by sonication for lysis. The lysed sample proceeded to […] at 13000 rpm for 3 minutes, and the supernatant was transferred into a microcentrifuge tube, followed by sonication again for chromatin fragmentation. Supernatant was obtained by centrifugation, some of which was transferred into input and some of which was reacted with the antibodies of phospho-Ser^63-c-Jun, snail1, and smad 2/3/4 (cell signaling technology, USA) at 4° C. for at least 18 hours. Upon completion of the reaction, the tube was taken out from 4° C., to which sepharose beads coated with protein A and G (1:1), followed by reaction at 4° C. for 4 hours. The tube was then washed with RIPA/150 mM NaCl solution and washed again with RIPA/350 mM NaCl solution. The washed sample was washed again with LiCl washing buffer, which was washed with TE (Tris/EDTA) solution three times. TE solution was added thereto, followed by reaction at 65° C. for 15 hours. On the 3rd day of the reaction, RNase A was added to each input and sample, followed by reaction at 37° C. Proteinase K was added thereto, followed by reaction at 55° C. for 1 hour. […]

SMILES	cell growth (MDA-MB-231 cell line [1])	binding of c-Jun to snail1 promoter region (MDA-MB-231 cell line [2])
N#CC(=C(/N)Sc1ccccc1N)/C(C#N)=C(/N)Sc1ccccc1N [ERK inhibitor]	did not grow normally but instead showed dying proneness	–
Oc1c2ccccc2c2c3c(cccc13)N=N2 [SP600125]	–	did not bind
